Legend:
[1] = system: 222T_mA (DNA, G4) TGGGTTGGGAAGGGTTGGGT; assay: native ESI-MS screening (single concentration); conditions: 0.5 mM K+, 100 mM TMAA pH 6.8, 10 µM DNA, 20 µM ligand
[2] = system: 222T (DNA, G4) TGGGTTGGGTTGGGTTGGGT; assay: native ESI-MS screening (single concentration); conditions: 0.5 mM K+, 100 mM TMAA pH 6.8, 10 µM DNA, 20 µM ligand
[3] = system: 5YEY (DNA, G4) GGGTTAGGGTTAGGGTTTGGG; assay: native ESI-MS screening (single concentration); conditions: 0.5 mM K+; 100 mM TMAA pH 6.8, 10 µM DNA, 20 µM ligand; stepwise KD1 (KD2 40)
[4] = system: 1XAV (DNA, G4) TGAGGGTGGGTAGGGTGGGTAA; assay: native ESI-MS screening (single concentration); conditions: 0.5 mM K+, 100 mM TMAA pH 6.8, 10 µM DNA, 20 µM ligand
[5] = system: T24 (DNA, single strand) TTTTTTTTTTTTTTTTTTTTTTTT; assay: native ESI-MS titration; conditions: 0.5 mM K+; 100 mM TMAA pH 6.8, 10 µM DNA, up to 40 µM ligand
TG4T (DNA, G4) TGGGGT = assay: native ESI-MS screening (single concentration); conditions: K+ 0.5 mM (KCl) with 100 mM TMAA, or NH4+ 150 mM; source does not say which; pH 6.8, 10 µM DNA, 20 µM ligand; stepwise KD1
[6] = system: 5YEY (DNA, G4) GGGTTAGGGTTAGGGTTTGGG; assay: UV melting 295 nm; conditions: 0.5 mM K+; 100 mM TMAA pH 6.8; 10 µM DNA, 20 µM QQPQ
[7] = system: T30177TT (DNA, G4) TTGTGGTGGGTGGGTGGGT; assay: UV melting 295 nm; conditions: 0.5 mM K+; 100 mM TMAA pH 6.8; 10 µM DNA, 20 µM QQPQ; two transitions
[8] = system: 22GT_18T (DNA, G4) GGGTTAGGGTTAGGGTTTGGGT; assay: native ESI-MS screening (single concentration); conditions: 0.5 mM K+; 100 mM TMAA pH 6.8, 10 µM DNA, 20 µM ligand; stepwise KD1
[9] = system: 5YEY (DNA, G4) GGGTTAGGGTTAGGGTTTGGG; assay: native ESI-MS titration; conditions: 0.5 mM K+, 100 mM TMAA pH 6.8, 10 µM DNA
[10] = system: 26TTA (DNA, G4) TTAGGGTTAGGGTTAGGGTTAGGGTT; assay: native ESI-MS screening (single concentration); conditions: 0.5 mM K+; 100 mM TMAA pH 6.8, 10 µM DNA, 20 µM ligand; stepwise KD1
[11] = system: 222T (DNA, G4) TGGGTTGGGTTGGGTTGGGT; assay: UV melting 295 nm; conditions: 0.5 mM K+; 100 mM TMAA pH 6.8; 10 µM DNA, 20 µM QQPQ; two transitions
[12] = system: 1XAV (DNA, G4) TGAGGGTGGGTAGGGTGGGTAA; assay: native ESI-MS titration; conditions: 0.5 mM K+; 100 mM TMAA pH 6.8, 10 µM DNA; stepwise KD1
[13] = system: 21G (DNA, G4) GGGTTAGGGTTAGGGTTAGGG; assay: native ESI-MS titration; conditions: 0.5 mM K+; 100 mM TMAA pH 6.8, 10 µM DNA; KD1 differs 20-fold from 5YEY
[14] = stepwise KD1, exact value in Table S3

CC(=O)Nc1cccc2c(OCCCN)cc(C(=O)NCc3cccc(C(=O)NCc4cccc(C(=O)Nc5cccc6c(OCCCN)cc(C(=O)O)nc56)n4)n3)nc12
KD1 ([1]; stepwise KD1 (KD2 3.4)): 8.9 µM | KD1 ([2]; stepwise KD1 (KD2 5.4)): 2.3 µM | KD1 [3]: 75 µM | KD1 ([4]; stepwise KD1 (KD2 7.4)): 5.2 µM | KD [5]: > 100 µM

CC(=O)Nc1cccc2c(OCCCN)cc(C(=O)NCc3cccc(C(=O)Nc4cccc5c(OCCCN)cc(C(=O)O)nc45)n3)nc12
KD1 ([1]; stepwise KD1 (KD2 14)): 25 µM | KD1 ([2]; stepwise KD1 (KD2 22)): 4.8 µM | KD1 ([4]; stepwise KD1 (KD2 27)): 15 µM | KD [5]: > 100 µM

CC(=O)Nc1cccc2c(OCCCN)cc(C(=O)Nc3cccc4c(OCCCN)cc(C(=O)NCc5cccc(C(=O)Nc6cccc7c(OCCCN)cc(C(=O)O)nc67)n5)nc34)nc12
KD1 (TG4T (DNA, G4) TGGGGT): ~ 5 µM | KD1 ([1]; stepwise KD1 (KD2 1.0)): 2.2 µM | ΔTm [6]: +8.2 °C | KD1 ([2]; stepwise KD1 (KD2 2.1)): 0.5 µM | ΔTm [7]: 17 °C | KD1 ([4]; stepwise KD1 (KD2 1.5)): 0.5 µM | KD1 [8]: ~ 5 µM | KD1 ([9]; stepwise KD1 (KD2 200 ± 70), screening gave 1.5): 0.54 ± 0.1 µM | KD1 [10]: ~ 5 µM | ΔTm [11]: ~ +26 °C | KD [5]: > 100 µM

CC(=O)Nc1cccc2c(OCCCN)cc(C(=O)Nc3cccc4c(OCCCN)cc(C(=O)Nc5cccc6c(OCCCN)cc(C(=O)Nc7cccc8c(OCCCN)cc(C(=O)Nc9cccc%10c(OCCCN)cc(C(=O)Nc%11cccc%12c(OCCCN)cc(C(=O)Nc%13cccc%14c(OCCCN)cc(C(=O)Nc%15cccc%16c(OCCCN)cc(C(=O)O)nc%15%16)nc%13%14)nc%11%12)nc9%10)nc78)nc56)nc34)nc12
KD1 [12]: 28 ± 6.7 µM

CC(=O)Nc1cccc2c(OCCCN)cc(C(=O)Nc3cccc4c(OCCCN)cc(C(=O)Nc5cccc6c(OCCCN)cc(C(=O)Nc7cccc8c(OCCCN)cc(C(=O)Nc9cccc%10c(OCCCN)cc(C(=O)O)nc9%10)nc78)nc56)nc34)nc12
KD1 [9, 14]: < 10 µM

CC(=O)Nc1cccc2c(OCCCN)cc(C(=O)Nc3cccc4c(OCCCN)cc(C(=O)Nc5cccc6c(OCCCN)cc(C(=O)Nc7cccc8c(OCCCN)cc(C(=O)O)nc78)nc56)nc34)nc12
KD1 ([1]; stepwise KD1 (KD2 4.5)): 12 µM | KD1 ([2]; stepwise KD1 (KD2 2.0)): 1.1 µM | KD1 [12]: 0.075 ± 0.059 µM | KD1 [13]: 330 ± 23 µM | KD1 [9, 14]: < 10 µM
